From patent US20220128542A1, “TREATMENT EFFICIENCY EVALUATION” (TX MEDIC AB, priority 2019, published 2022)
Marks after values point to notes of the source that are not given here.

Tested on: brain of rats subjected to severe traumatic brain injury (sTBI)
Assay: HPLC of purine-pyrimidine metabolites (energy state, oxidative/nitrosative stress) in brain after sTBI (Example 1)
Format: in vivo, rat
Description: They were divided into three groups:
1) n=6 animals subjected to sTBI, with drug administration after 30 minutes and sacrifice at 2 days post-TBI (Acute phase 1)
2) n=6 animals subjected to sTBI, with drug administration after 30 minutes and sacrifice at 7 days post-TBI (Acute phase 2).
3) n=6 animals subjected to sTBI, with drug administration after 3 days and sacrifice at 7 days post-TBI (Chronic phase).
The drug treatment was a subcutaneous injection of 0.5 ml of LMW-DS (15 mg/kg) and administered according to the aforementioned schematic protocol.
After the wet weight (w.w.) determination, tissue preparation was affected as previously disclosed (Tavazzi et al., Neurosurgery. 2005; 56: 582-589; Vagnozzi et al., Neurosurgery. 2007; 61: 379-388; Tavazzi et al., Neurosurgery. 2007; 61: 390-395; Amorini et al., J Cell Mol Med. 2017; 21: 530-542.). Briefly, whole brain homogenization was performed with 7 ml of ice-cold, nitrogen-saturated, precipitating solution composed by CH3CN+10 mM KH2PO4, pH 7.40, (3:1; v:v), and using an Ultra-Turrax set at 24,000 rpm/min (Janke & Kunkel, Staufen, Germany). After centrifugation at 20,690×g, for 10 min at 4° C., the clear supernatants were saved, pellets were supplemented with 3 ml of the precipitating solution and homogenized again as described above. A second centrifugation was performed (20,690×g, for 10 min at 4° C.), pellets were saved, supernatants combined with those previously obtained, extracted by vigorous agitation with a double volume of HPLC-grade CHCl3 and centrifuged as above. The upper aqueous phases containing water-soluble low-molecular weight compounds were collected, subjected to chloroform washings for two more times (this procedure allowed the removal of all the organic solvent and of any lipid soluble compound from the buffered tissue extracts), adjusted in volumes with 10 mM KH2PO4, pH 7.40, to have ultimately aqueous 10% tissue homogenates and saved at −80° C. until assayed.
Aliquots of each deproteinized tissue samples were filtered through a 0.45 μm HV Millipore filter and loaded (200 μl) onto a Hypersil C-18, 250×4.6 mm, 5 μm particle size column, provided with its own guard column (Thermo Fisher Scientific, Rodano, Milan, Italy) and connected to an HPLC apparatus consisting of a Surveyor System (Thermo Fisher Scientific, Rodano, Milan, Italy) with a highly sensitive diode array detector (equipped with a 5 cm light path flow cell) and set up between 200 and 300 nm wavelength. Data acquisition and analysis were performed by a PC using the ChromQuest® software package provided by the HPLC manufacturer.
Metabolites belonging to the purine-pyrimidine profiles (listed below) and related to tissue energy state, mitochondrial function and relative to oxidative-nitrosative stresses were separated, in a single chromatographic run, according to slight modifications of existing ion-pairing HPLC methods (Lazzarino et al., Anal Biochem. 2003; 322: 51-59; Tavazzi et al., Clin Biochem. 2005; 38: 997-1008). Assignment and calculation of the compounds of interest in chromatographic runs of tissue extracts were carried out at the proper wavelengths (206, 234 and 260 nm) by comparing retention times, absorption spectra and areas of peaks with those of peaks of chromatographic runs of freshly-prepared ultra-pure standard mixtures with known concentrations. […]

[1] = Acute phase 1: 15 mg/kg s.c. 30 min post-sTBI, sacrifice day 2
[2] = Acute phase 2: 15 mg/kg s.c. 30 min post-sTBI, sacrifice day 7

sodium salt of dextran sulfate [LMW-DS]
MDA levels (15 mg/kg s.c. after sTBI): significant reduction | ascorbic acid and GSH levels (15 mg/kg s.c. after sTBI): significant improvement | levels of NAA and its substrates (15 mg/kg s.c. after sTBI): significant improvements | nitrate concentrations (15 mg/kg s.c., acute and chronic phases of sTBI): significantly decreased | ADO brain concentration [1]: 71.67 ± 15.87 nmol/g (w.w.) | ADP brain concentration [1]: 279.34 ± 29.59^b nmol/g (w.w.) | ADP-ribose brain concentration [1]: 137.87 ± 43.18^a nmol/g (w.w.) | AMP brain concentration [1]: 53.61 ± 17.91^a, c, j nmol/g (w.w.) | ATP brain concentration [1]: 1464.25 ± 99.09^a, h nmol/g (w.w.) | CDP brain concentration [1]: 25.53 ± 6.83^a, c nmol/g (w.w.) | CDP choline brain concentration [1]: 10.93 ± 3.22^b, h nmol/g (w.w.) | CTP brain concentration [1]: 18.98 ± 6.58^a, g nmol/g (w.w.) | CoA-SH brain concentration [1]: 21.61 ± 3.42^a, h nmol/g (w.w.) | GDP brain concentration [1]: 158.72 ± 24.57^a nmol/g (w.w.) | GDP glucose brain concentration [1]: 38.71 ± 6.86 nmol/g (w.w.) | GMP brain concentration [1]: 177.00 ± 32.39^a, g nmol/g (w.w.) | GSH brain concentration [1]: 2649.50 ± 397.31^a, d nmol/g (w.w.) | GSSG brain concentration [1]: 185.21 ± 48.10 nmol/g (w.w.) | GTP brain concentration [1]: 255.29 ± 45.21^a, g nmol/g (w.w.) | IMP brain concentration [1]: 67.71 ± 10.63^g, i nmol/g (w.w.) | MDA brain concentration [1]: 12.47 ± 2.09^a, c, g nmol/g (w.w.) | NAA brain concentration [1]: 6147.91 ± 989.12^a nmol/g (w.w.) | NADH brain concentration [1]: 15.49 ± 2.05^c, j nmol/g (w.w.) | NADPH brain concentration [1]: 6.22 ± 1.73 nmol/g (w.w.) | NADP^+ brain concentration [1]: 17.95 ± 3.28^a nmol/g (w.w.) | NAD^+ brain concentration [1]: 404.63 ± 51.10^a, c, i nmol/g (w.w.) | NO2 brain concentration [1]: 216.03 ± 41.74^a nmol/g (w.w.) | NO3 brain concentration [1]: 210.64 ± 91.95^d nmol/g (w.w.) | UDP brain concentration [1]: 61.83 ± 10.23^a, g nmol/g (w.w.) | UDP-Gal brain concentration [1]: 119.45 ± 12.50 nmol/g (w.w.) | UDP-GalNac brain concentration [1]: 19.17 ± 4.01^a nmol/g (w.w.) | UDP-Glc brain concentration [1]: 32.14 ± 4.59^g nmol/g (w.w.) | UDP-GlcNac brain concentration [1]: 95.85 ± 19.73^h, i nmol/g (w.w.) | UMP brain concentration [1]: 107.80 ± 21.62 nmol/g (w.w.) | UTP brain concentration [1]: 123.46 ± 15.42^d nmol/g (w.w.) | acetyl-CoA brain concentration [1]: 21.56 ± 6.22^a, g, i nmol/g (w.w.) | adenine brain concentration [1]: 44.82 ± 6.31^a, d, g nmol/g (w.w.) | ascorbic acid brain concentration [1]: 3733.10 ± 277.88^a, d nmol/g (w.w.) | creatinine brain concentration [1]: 24.55 ± 3.20^b, g, i nmol/g (w.w.) | cytidine brain concentration [1]: 15.40 ± 3.04 nmol/g (w.w.) | cytosine brain concentration [1]: 17.69 ± 2.50^b, d nmol/g (w.w.) | guanine brain concentration [1]: 4.80 ± 1.24^b nmol/g (w.w.) | guanosine brain concentration [1]: 20.71 ± 5.66 nmol/g (w.w.) | hypoxanthine brain concentration [1]: 14.47 ± 2.87^a nmol/g (w.w.) | inosine brain concentration [1]: 92.55 ± 31.20^c nmol/g (w.w.) | malonyl-CoA brain concentration [1]: 12.33 ± 1.82^b nmol/g (w.w.) | orotic acid brain concentration [1]: 8.80 ± 2.45^b, h, j nmol/g (w.w.) | thymidine brain concentration [1]: 0.69 ± 0.11 nmol/g (w.w.) | uracil brain concentration [1]: 14.56 ± 5.44 nmol/g (w.w.) | uric acid brain concentration [1]: 23.62 ± 3.77^a, d, h nmol/g (w.w.) | uridine brain concentration [1]: 76.35 ± 12.85^a, c nmol/g (w.w.) | xanthine brain concentration [1]: 9.46 ± 2.34^d nmol/g (w.w.) | β-pseudouridine brain concentration [1]: 6.65 ± 1.309^g, i nmol/g (w.w.) | ADO brain concentration [2]: 82.11 ± 16.51^a nmol/g (w.w.) | ADP brain concentration [2]: 264.07 ± 28.29^b, e, j nmol/g (w.w.) | ADP-ribose brain concentration [2]: 141.96 ± 23.56^a, e, j nmol/g (w.w.) | AMP brain concentration [2]: 57.70 ± 23.01^a, e, j nmol/g (w.w.) | ATP brain concentration [2]: 1632.23 ± 90.07^a, e, j nmol/g (w.w.) | CDP brain concentration [2]: 24.29 ± 6.76^a nmol/g (w.w.) | CDP choline brain concentration [2]: 6.91 ± 1.86 nmol/g (w.w.) | CMP brain concentration [2]: 15.68 ± 2.12^f, j nmol/g (w.w.) | CTP brain concentration [2]: 32.63 ± 3.99^e, i nmol/g (w.w.) | CoA-SH brain concentration [2]: 30.57 ± 6.02^f nmol/g (w.w.) | GDP brain concentration [2]: 126.70 ± 31.35^a, j nmol/g (w.w.) | GDP glucose brain concentration [2]: 49.25 ± 10.33^a nmol/g (w.w.) | GMP brain concentration [2]: 91.47 ± 12.35^e, i nmol/g (w.w.) | GSH brain concentration [2]: 2821.50 ± 242.82^a, e nmol/g (w.w.) | GSSG brain concentration [2]: 219.54 ± 53.36 nmol/g (w.w.) | GTP brain concentration [2]: 336.65 ± 35.18^a, e, j nmol/g (w.w.) | IMP brain concentration [2]: 102.63 ± 22.09^a nmol/g (w.w.) | MDA brain concentration [2]: 4.82 ± 1.73^a, e, i nmol/g (w.w.) | NAA brain concentration [2]: 7262.84 ± 749.73^a, e nmol/g (w.w.) | NADH brain concentration [2]: 13.12 ± 4.19^e nmol/g (w.w.) | NADPH brain concentration [2]: 7.05 ± 2.21 nmol/g (w.w.) | NADP^+ brain concentration [2]: 21.27 ± 4.19^b, e, j nmol/g (w.w.) | NAD^+ brain concentration [2]: 401.18 ± 34.53^a, e, i nmol/g (w.w.)
